# Values joined by “and” are separate entries in the source; they are usually repeats but may differ in a detail not shown here. Identical values can stand only once.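 Test compounds were applied to cells in 96-well plates for 48 hours at 5 doses. The concentration for 50% growth inhibition is given as GI50. TGI: concentration producing complete growth inhibition.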
# How the values were obtained:
# Assay in all cases: NCI-60 cell line screen, 48 h
# [1] = system: LOX IMVI melanoma
# [2] = system: SK-OV-3 ovarian
# [3] = system: EKVX NSCLC
# [4] = system: UACC-257 melanoma
# [5] = system: NCI-H226 lung
# [6] = system: OVCAR-4 ovarian
# [7] = system: HT29 colon
# [8] = system: OVCAR-3 ovarian
# [9] = system: NCI-H522 lung
# [10] = system: A549 NSCLC
Structure (SMILES),TGI [1],TGI [2],TGI [3],TGI [4],TGI [5],TGI [6],TGI [7],TGI [8],TGI [9],TGI [10],GI50 [1],GI50 [2],GI50 [3],GI50 [4],GI50 [5],GI50 [6],GI50 [7],GI50 [8],GI50 [9],GI50 [10]
COC(=O)c1cc2ccc(OC(C)=O)c(OC(C)=O)c2cn1,3.63 µM and 2.6 µM,52.4 µM,38.1 µM,29.2 µM,41.7 µM,30.6 µM,52.6 µM,30.9 µM,34.5 µM,43 µM,–,–,–,–,–,–,–,–,–,–
O=C(COc1ccc(/C=C2\Oc3ccccc3C2=O)cc1)Nc1nc2c(s1)CCCC2,0.0317 µM,> 100 µM,> 100 µM,0.835 µM,42 µM,> 100 µM,> 39.4 µM,25.5 µM,0.406 µM,33 µM,0.0175 µM,50.2 µM,10.7 µM,0.0449 µM,8.55 µM,13.1 µM,3.21 µM,1.83 µM,0.165 µM,3.09 µM
COc1ccc(C2SC(C)C(=O)N2NC(=O)C(O)c2ccccc2)cc1OC (stereo not given),> 100 µM,> 100 µM,> 100 µM,> 100 µM,> 100 µM,> 100 µM,> 100 µM,> 100 µM,> 100 µM,> 100 µM,> 100 µM,> 100 µM,> 100 µM,> 100 µM,> 100 µM,> 100 µM,> 100 µM,> 100 µM,> 100 µM,> 100 µM
COc1cc(C2C(Cl)C(=O)N2NC(=O)c2ccc(N)cc2)ccc1O (stereo not given),32.1 µM,> 100 µM,> 100 µM,> 100 µM,> 100 µM,> 100 µM,45.8 µM,39 µM,35 µM,> 100 µM,–,–,–,–,–,–,–,–,–,–
Cc1cc(Cl)ccc1NC(=O)CC/C(CC(=O)C(C)C)=N\NC(=O)C[n+]1ccccc1,> 100 µM,> 100 µM,> 100 µM,> 100 µM,> 100 µM,> 100 µM,> 100 µM,> 100 µM,> 100 µM,> 100 µM,–,–,–,–,–,–,–,–,–,–
C[CH2][Sn]([CH2]C)([O]C(=O)C(OC(C)=O)c1ccccc1)[O]C(=O)C(OC(C)=O)c1ccccc1 (stereo not given),35.4 µM,> 100 µM,> 100 µM,33.4 µM,92.7 µM,> 100 µM,> 100 µM,> 100 µM,4.35 µM,> 100 µM,18.2 µM,> 100 µM,> 100 µM,16.7 µM,29 µM,50 µM,46.7 µM,> 100 µM,1.58 µM,> 100 µM
Cc1[nH]c2ccccc2c1C1Cc2ccccc2N1C(=O)/C=C/C(=O)O (stereo not given),> 100 µM,> 100 µM,> 100 µM,> 100 µM,> 100 µM,> 100 µM,> 100 µM,> 100 µM,> 100 µM,> 100 µM,–,–,–,–,–,–,–,–,–,–

# Source: PubChem BioAssay (NCI)
